Assay results from paper PMC5218480 (PLoS ONE, 2017).

Test system: MV-4-11 cells
Test: Gene expression microarray analysis (Affymetrix PrimeView) and GSEA
Assay type: cell-based, human
Parameters: RFU PODN (11730768_x_at) / Fold change /veh PODN (11730768_x_at) / RFU LINC00158 (11744669_a_at) / Fold change /veh LINC00158 (11744669_a_at) / RFU DUSP10 (11751237_a_at) / Fold change /veh DUSP10 (11751237_a_at) / RFU ID3 (11757404_x_at) / Fold change /veh ID3 (11757404_x_at) / RFU PLEKHG5 (11737974_s_at) / Fold change /veh PLEKHG5 (11737974_s_at) / RFU LRRC4B (11730491_at) / Fold change /veh LRRC4B (11730491_at) / RFU GIMAP4 (11747438_a_at) / Fold change /veh GIMAP4 (11747438_a_at) / RFU KRT8 (11758183_x_at) / Fold change /veh KRT8 (11758183_x_at) / RFU CNN1 (11734310_a_at) / Fold change /veh CNN1 (11734310_a_at) / RFU VPS37D (11726825_at) / Fold change /veh VPS37D (11726825_at) / RFU C10orf10 (11716522_x_at) / Fold change /veh C10orf10 (11716522_x_at) / RFU KIR2DL2 /// KIR2DL4 /// KIR2DL5A /// KIR2DL5B /// KIR2DS1 /// KIR2DS2 /// KIR2DS3 /// KIR2DS4 /// KIR3DL3 /// KIR3DL3 /// KIR3DS1 (11738374_at) / Fold change /veh KIR2DL2 /// KIR2DL4 /// KIR2DL5A /// KIR2DL5B /// KIR2DS1 /// KIR2DS2 /// KIR2DS3 /// KIR2DS4 /// KIR3DL3 /// KIR3DL3 /// KIR3DS1 (11738374_at) / RFU C1QL1 (11718748_at) / Fold change /veh C1QL1 (11718748_at) / RFU TMPRSS4 (11747572_a_at) / Fold change /veh TMPRSS4 (11747572_a_at) / RFU HAMP (11756126_x_at) / Fold change /veh HAMP (11756126_x_at) / RFU RNFT2 (11725882_a_at) / Fold change /veh RNFT2 (11725882_a_at) / RFU NR4A2 (11747474_a_at) / Fold change /veh NR4A2 (11747474_a_at) / RFU ABCC12 (11746883_a_at) / Fold change /veh ABCC12 (11746883_a_at) / RFU TMEM136 (11760407_x_at) / Fold change /veh TMEM136 (11760407_x_at) / RFU CLDN22 /// WWC2 (11732394_at) / Fold change /veh CLDN22 /// WWC2 (11732394_at) / RFU HLA-DPB1 (11760878_x_at) / Fold change /veh HLA-DPB1 (11760878_x_at) / RFU SPINT1 (11716480_a_at) / Fold change /veh SPINT1 (11716480_a_at) / RFU GAP43 (11754022_s_at) / Fold change /veh GAP43 (11754022_s_at) / RFU A4GNT (11735810_at) / Fold change /veh A4GNT (11735810_at) / RFU PRB3 (11715151_x_at) / Fold change /veh PRB3 (11715151_x_at) / RFU TUBB4B (11761932_at) / Fold change /veh TUBB4B (11761932_at) / RFU CAPN14 (11732068_a_at) / Fold change /veh CAPN14 (11732068_a_at) / RFU TMCC2 (11721928_a_at) / Fold change /veh TMCC2 (11721928_a_at) / RFU IRGQ (11745062_a_at) / Fold change /veh IRGQ (11745062_a_at) / RFU FAM174B (11720279_a_at) / Fold change /veh FAM174B (11720279_a_at) / RFU TMPRSS4 (11748680_a_at) / Fold change /veh TMPRSS4 (11748680_a_at) / RFU FAM212B (11763350_a_at) / Fold change /veh FAM212B (11763350_a_at) / RFU PLEKHG5 (11743358_a_at) / Fold change /veh PLEKHG5 (11743358_a_at) / RFU ZSCAN30 (11745921_a_at) / Fold change /veh ZSCAN30 (11745921_a_at) / RFU CMKLR1 (11741424_a_at) / Fold change /veh CMKLR1 (11741424_a_at) / RFU LOC101060620 /// MAPK8IP1 (11723275_at) / Fold change /veh LOC101060620 /// MAPK8IP1 (11723275_at) / RFU SPTSSB (11747773_x_at) / Fold change /veh SPTSSB (11747773_x_at) / RFU PRSS12 (11739890_at) / Fold change /veh PRSS12 (11739890_at) / RFU BIN1 (11741810_x_at) / Fold change /veh BIN1 (11741810_x_at) / RFU WNT11 (11732464_a_at) / Fold change /veh WNT11 (11732464_a_at) / RFU C10orf10 (11716521_a_at) / Fold change /veh C10orf10 (11716521_a_at) / RFU C5orf56 (11738089_at) / Fold change /veh C5orf56 (11738089_at) / RFU CYB561 (11721691_x_at) / Fold change /veh CYB561 (11721691_x_at) / RFU ANKRD19P (11752326_a_at) / Fold change /veh ANKRD19P (11752326_a_at) / RFU OR2T12 /// OR2T33 /// OR2T8 (11738714_s_at) / Fold change /veh OR2T12 /// OR2T33 /// OR2T8 (11738714_s_at) / RFU VCAN (11748164_a_at) / Fold change /veh VCAN (11748164_a_at) / RFU JSRP1 (11732532_at) / Fold change /veh JSRP1 (11732532_at) / RFU KRTAP10-11 (11738290_x_at) / Fold change /veh KRTAP10-11 (11738290_x_at) / RFU MYO3A (11730013_a_at) / Fold change /veh MYO3A (11730013_a_at) / RFU EBF3 (11725865_a_at) / Fold change /veh EBF3 (11725865_a_at) / RFU CAMK2N1 (11719241_x_at) / Fold change /veh CAMK2N1 (11719241_x_at) / RFU C5orf56 (11738088_a_at) / Fold change /veh C5orf56 (11738088_a_at) / RFU OLFML3 (11715873_a_at) / Fold change /veh OLFML3 (11715873_a_at) / RFU LOC100653217 /// NTM (11731650_a_at) / Fold change /veh LOC100653217 /// NTM (11731650_a_at) / RFU MAPK11 (11762145_a_at) / Fold change /veh MAPK11 (11762145_a_at) / RFU FIZ1 (11724087_x_at) / Fold change /veh FIZ1 (11724087_x_at) / RFU OASL (11726364_x_at) / Fold change /veh OASL (11726364_x_at) / RFU SOX15 (11748057_x_at) / Fold change /veh SOX15 (11748057_x_at) / RFU CD79A (11719716_a_at) / Fold change /veh CD79A (11719716_a_at) / RFU HIST1H1D (11736915_at) / Fold change /veh HIST1H1D (11736915_at) / RFU CASKIN2 (11723855_a_at) / Fold change /veh CASKIN2 (11723855_a_at) / RFU LOC730098 (11760151_x_at) / Fold change /veh LOC730098 (11760151_x_at) / RFU OR4N2 (11742367_at) / Fold change /veh OR4N2 (11742367_at) / RFU PRRT2 (11749266_a_at) / Fold change /veh PRRT2 (11749266_a_at) / RFU SNX32 (11753110_a_at) / Fold change /veh SNX32 (11753110_a_at) / RFU CDHR5 (11726645_a_at) / Fold change /veh CDHR5 (11726645_a_at) / RFU RCAN1 (11760418_a_at) / Fold change /veh RCAN1 (11760418_a_at) / RFU FAM167A (11723789_a_at) / Fold change /veh FAM167A (11723789_a_at) / RFU FAM26E (11764081_at) / Fold change /veh FAM26E (11764081_at) / RFU ISYNA1 (11749810_s_at) / Fold change /veh ISYNA1 (11749810_s_at) / RFU ACY1 (11761880_at) / Fold change /veh ACY1 (11761880_at) / RFU 11764098_at / Fold change /veh 11764098_at / RFU SAMD14 (11745864_x_at) / Fold change /veh SAMD14 (11745864_x_at) / RFU NPB (11741838_a_at) / Fold change /veh NPB (11741838_a_at) / RFU TMPRSS6 (11731388_a_at) / Fold change /veh TMPRSS6 (11731388_a_at) / RFU KRTAP10-2 (11738614_at) / Fold change /veh KRTAP10-2 (11738614_at) / RFU ARHGAP8 /// PRR5-ARHGAP8 (11727945_x_at) / Fold change /veh ARHGAP8 /// PRR5-ARHGAP8 (11727945_x_at) / RFU KRTAP5-7 /// NADSYN1 (11734609_at) / Fold change /veh KRTAP5-7 /// NADSYN1 (11734609_at) / RFU RASL12 (11751679_a_at) / Fold change /veh RASL12 (11751679_a_at) / RFU CDKN2B (11736163_a_at) / Fold change /veh CDKN2B (11736163_a_at) / RFU PRF1 (11729649_at) / Fold change /veh PRF1 (11729649_at) / RFU, ZNF638 /// ZNF638-IT1 / Fold change vs veh, ZNF638 /// ZNF638-IT1 / RFU, PANK3 / Fold change vs veh, PANK3 / RFU, SH3YL1 / Fold change vs veh, SH3YL1 / RFU, ZEB2 / Fold change vs veh, ZEB2 / RFU, NRIP1 / Fold change vs veh, NRIP1 / RFU, PTTG1IP / Fold change vs veh, PTTG1IP / RFU, CAPN2 / Fold change vs veh, CAPN2 / RFU, MED14 / Fold change vs veh, MED14 / RFU, SNORA58 / Fold change vs veh, SNORA58 / RFU, C1orf63 / Fold change vs veh, C1orf63 / RFU, LRRFIP1 / Fold change vs veh, LRRFIP1 / RFU, NDUFAF7 / Fold change vs veh, NDUFAF7 / RFU, SLC12A2 / Fold change vs veh, SLC12A2 / RFU, IBTK / Fold change vs veh, IBTK / RFU, ESF1 / Fold change vs veh, ESF1 / Fold change vs veh, TMEM50B / RFU, TAOK1 / Fold change vs veh, TAOK1 / RFU, ACBD3 / Fold change vs veh, ACBD3 / RFU, TMA16 / Fold change vs veh, TMA16 / RFU, RWDD3 / Fold change vs veh, RWDD3 / RFU, BCAT1 / Fold change vs veh, BCAT1 / RFU, EDEM3 / Fold change vs veh, EDEM3 / RFU, TMEM33 / Fold change vs veh, TMEM33 / RFU, WDR75 / Fold change vs veh, WDR75 / RFU, AHCTF1 / Fold change vs veh, AHCTF1 / RFU, TFRC / Fold change vs veh, TFRC / RFU, ZDHHC17 / Fold change vs veh, ZDHHC17 / RFU, NOM1 / Fold change vs veh, NOM1 / RFU, ARL8B / Fold change vs veh, ARL8B / RFU, ZBTB11 / Fold change vs veh, ZBTB11 / RFU, TAMM41 / Fold change vs veh, TAMM41 / RFU, KIAA1704 /// LOC100996395 / Fold change vs veh, KIAA1704 /// LOC100996395 / RFU, ING1 / Fold change vs veh, ING1 / RFU, TRMT61B / Fold change vs veh, TRMT61B / RFU, FUBP3 / Fold change vs veh, FUBP3 / RFU, TP53 / Fold change vs veh, TP53 / RFU, TNKS2 / Fold change vs veh, TNKS2 / RFU, ZFP14 / Fold change vs veh, ZFP14 / RFU, ACTR2 / Fold change vs veh, ACTR2 / RFU, PPP3R1 / Fold change vs veh, PPP3R1 / RFU, PIK3R1 / Fold change vs veh, PIK3R1 / RFU, HNRNPA1 / Fold change vs veh, HNRNPA1 / RFU, RNF170 / Fold change vs veh, RNF170 / RFU, ZNF28 / Fold change vs veh, ZNF28 / RFU, RNGTT / Fold change vs veh, RNGTT / RFU, OGT / Fold change vs veh, OGT / RFU, BRD1 / Fold change vs veh, BRD1 / RFU, MARS / Fold change vs veh, MARS / RFU, ZNF655 / Fold change vs veh, ZNF655 / RFU, FAHD1 / Fold change vs veh, FAHD1 / RFU, BDP1 / Fold change vs veh, BDP1 / RFU, LRRCC1 / Fold change vs veh, LRRCC1 / RFU, ARID1A / Fold change vs veh, ARID1A / RFU, ZNF146 / Fold change vs veh, ZNF146 / RFU, ZNF330 / Fold change vs veh, ZNF330 / RFU, GPN3 / Fold change vs veh, GPN3 / RFU, C9orf123 / Fold change vs veh, C9orf123 / RFU, N4BP2L2 / Fold change vs veh, N4BP2L2 / RFU, ARFIP1 / Fold change vs veh, ARFIP1 / RFU, FAM179B / Fold change vs veh, FAM179B / RFU, BCL10 / Fold change vs veh, BCL10 / RFU, UHRF1BP1L / Fold change vs veh, UHRF1BP1L / RFU, BET1 / Fold change vs veh, BET1 / RFU, CNOT2 / Fold change vs veh, CNOT2 / RFU, ZNF268 / Fold change vs veh, ZNF268 / Fold change vs veh, ZNF507 / RFU, DGCR2 / Fold change vs veh, DGCR2 / RFU, WDSUB1 / Fold change vs veh, WDSUB1 / Fold change vs veh, HSP90B1 /// MIR3652 / RFU, ADSS / Fold change vs veh, ADSS / RFU, GK / Fold change vs veh, GK / RFU, ZNF148 / Fold change vs veh, ZNF148 / RFU, TAF9 / Fold change vs veh, TAF9 / RFU, SLC1A5 / Fold change vs veh, SLC1A5 / RFU, SLMO2 / Fold change vs veh, SLMO2 / RFU, ABCC4 / Fold change vs veh, ABCC4 / RFU, LOC101060439 /// RAP1B / Fold change vs veh, LOC101060439 /// RAP1B / RFU, RFX7 / Fold change vs veh, RFX7 / RFU, GTPBP10 / Fold change vs veh, GTPBP10 / RFU, CNEP1R1 / Fold change vs veh, CNEP1R1 / RFU, BIVM-ERCC5 /// ERCC5 / Fold change vs veh, BIVM-ERCC5 /// ERCC5 / RFU, ILF3 / Fold change vs veh, ILF3 / RFU 11762660_at / Fold change /veh 11762660_at / RFU VCAN (11757783_s_at) / Fold change /veh VCAN (11757783_s_at) / RFU DDX43 (11728927_at) / Fold change /veh DDX43 (11728927_at) / RFU KRT8 (11758188_x_at) / Fold change /veh KRT8 (11758188_x_at) / RFU NKD1 (11759106_at) / Fold change /veh NKD1 (11759106_at) / RFU SRD5A1 (11742802_a_at) / Fold change /veh SRD5A1 (11742802_a_at) / RFU TPSAB1 /// TPSB2 (11721975_s_at) / Fold change /veh TPSAB1 /// TPSB2 (11721975_s_at) / RFU GSTM3 (11746129_a_at) / Fold change /veh GSTM3 (11746129_a_at) / RFU IL23R (11737362_x_at) / Fold change /veh IL23R (11737362_x_at) / RFU TMEM51 (11727254_a_at) / Fold change /veh TMEM51 (11727254_a_at) / RFU PIWIL2 (11732686_x_at) / Fold change /veh PIWIL2 (11732686_x_at) / RFU ORM1 (11744905_x_at) / Fold change /veh ORM1 (11744905_x_at) / RFU CCDC152 (11743942_at) / Fold change /veh CCDC152 (11743942_at) / RFU ECM1 (11717891_a_at) / Fold change /veh ECM1 (11717891_a_at) / RFU IL23R (11748794_a_at) / Fold change /veh IL23R (11748794_a_at) / RFU TNFAIP8L3 (11732012_x_at) / Fold change /veh TNFAIP8L3 (11732012_x_at) / RFU MBOAT4 (11741988_at) / Fold change /veh MBOAT4 (11741988_at) / RFU 11764193_at / Fold change /veh 11764193_at / RFU TMEM53 (11763286_at) / Fold change /veh TMEM53 (11763286_at) / RFU MAGEB2 (11727129_at) / Fold change /veh MAGEB2 (11727129_at) / RFU TMEM200A (11744735_a_at) / Fold change /veh TMEM200A (11744735_a_at) / RFU CCDC152 (11751479_a_at) / Fold change /veh CCDC152 (11751479_a_at) / RFU FAM211A (11726209_a_at) / Fold change /veh FAM211A (11726209_a_at) / RFU RGS16 (11746705_a_at) / Fold change /veh RGS16 (11746705_a_at) / RFU VCAN (11755009_s_at) / Fold change /veh VCAN (11755009_s_at) / RFU RHOB (11743442_s_at) / Fold change /veh RHOB (11743442_s_at) / RFU RGS16 (11720943_a_at) / Fold change /veh RGS16 (11720943_a_at) / RFU RGS16 (11720944_at) / Fold change /veh RGS16 (11720944_at) / RFU, VPS4B / Fold change vs veh, VPS4B / RFU, CREB1 / Fold change vs veh, CREB1 / RFU, DNAJC13 / Fold change vs veh, DNAJC13 / RFU, GNAQ / Fold change vs veh, GNAQ / RFU, CDK5R1 / Fold change vs veh, CDK5R1 / RFU, ZRANB3 / Fold change vs veh, ZRANB3 / RFU, CUL4A / Fold change vs veh, CUL4A / RFU, CCNY / Fold change vs veh, CCNY / RFU, UFL1 / Fold change vs veh, UFL1 / RFU, COG3 / Fold change vs veh, COG3 / RFU, DIAPH2 / Fold change vs veh, DIAPH2 / RFU, SKA2 / Fold change vs veh, SKA2 / RFU, AFF3 / Fold change vs veh, AFF3 / RFU, LMF1 / Fold change vs veh, LMF1 / RFU, IPO11 / Fold change vs veh, IPO11 / RFU, DFFB / Fold change vs veh, DFFB / RFU, FOXP1 / Fold change vs veh, FOXP1 / RFU, CARD8 / Fold change vs veh, CARD8 / RFU, STRN3 / Fold change vs veh, STRN3 / RFU, ADK / Fold change vs veh, ADK / RFU, RASSF2 / Fold change vs veh, RASSF2 / RFU, WIPF1 / Fold change vs veh, WIPF1 / RFU, LARP1B / Fold change vs veh, LARP1B / RFU, RASA1 / Fold change vs veh, RASA1 / RFU, RB1 / Fold change vs veh, RB1 / RFU, PPFIA1 / Fold change vs veh, PPFIA1 / RFU, MAT2A / Fold change vs veh, MAT2A / RFU, CCT5 / Fold change vs veh, CCT5 / RFU, WDR92 / Fold change vs veh, WDR92 / RFU, CUX1 / Fold change vs veh, CUX1 / RFU, TTC7A / Fold change vs veh, TTC7A / RFU, TMEM135 / Fold change vs veh, TMEM135 / RFU, DEPTOR / Fold change vs veh, DEPTOR / RFU, CPM / Fold change vs veh, CPM / RFU, DNAJB6 / Fold change vs veh, DNAJB6 / RFU, CACNA2D3 / Fold change vs veh, CACNA2D3 / RFU, DTX4 / Fold change vs veh, DTX4 / RFU, TFCP2 / Fold change vs veh, TFCP2 / RFU, GMCL1 /// GMCL1P1 / Fold change vs veh, GMCL1 /// GMCL1P1 / RFU, AEBP2 / Fold change vs veh, AEBP2 / RFU, SNHG1 /// SNORD22 /// SNORD25 /// SNORD26 /// SNORD27 /// SNORD28 /// SNORD29 /// SNORD31 / Fold change vs veh, SNHG1 /// SNORD22 /// SNORD25 /// SNORD26 /// SNORD27 /// SNORD28 /// SNORD29 /// SNORD31 / Fold change (Aza/veh), C12orf56 (ProbeSet 11735607_a_at) / Fold change (ACY-1035/veh), C12orf56 (ProbeSet 11735607_a_at) / Fold change (Aza/veh), FGFR1OP (ProbeSet 11751329_s_at) / Fold change (ACY-1035/veh), FGFR1OP (ProbeSet 11751329_s_at) / Fold change (Aza/veh), VPS36 (ProbeSet 11739960_a_at) / Fold change (ACY-1035/veh), VPS36 (ProbeSet 11739960_a_at) / RFU SYPL1 (11715823_x_at) / Fold change /veh SYPL1 (11715823_x_at) / RFU IGFBP7 (11715501_s_at) / Fold change /veh IGFBP7 (11715501_s_at) / RFU REEP3 (11722064_at) / Fold change /veh REEP3 (11722064_at) / RFU IGLL1 (11728026_x_at) / Fold change /veh IGLL1 (11728026_x_at): dose or concentration left out as unconfirmed
Settings: ProbeSet 11732165_x_at; LIST D

## Nc1ccc(-c2cccs2)cc1NC(=O)c1ccc2c(c1)cc(C1CC1)n2CCN1CCOCC1 [ACY-1035]
  Fold change vs veh, LMF1: 0.85
